Source: US20150191469A1, “COMPOUNDS AND METHODS FOR TREATING HIV” (priority 2012, published 2015)

test system: HIV; assay: MT4 assay: antiviral HIV activity (cell protection, cell titer glo readout at 96 hours); format: cell-based; conditions: Human immunodeficiency virus 1, MT4, 96 h, MT4 cells, cell titer glo readout at 96 hours, 10 point dose response; read-out: HIV MT4 Assay IC50
Procedure, shortened: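 MT-4 cells infected with HIV, with inhibition readout by CellTiter-Glo luminescence at 96 h relative to no-compound control. Cytotoxicity measured in parallel under the same conditions. IC50 from a 10-point, 3-4-fold dilution series spanning >1000-fold, fitted with a four-parameter logistic equation.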

Row | Structure (SMILES) | IC50 [nM]
1 | Cc1nc2c(cc(-c3ccnc(N4CCCN(C(=O)C5CCOC5)CC4)c3)n2C)c(-c2cc(F)c3c(c2C)CCCO3)c1[C@H](OC(C)(C)C)C(=O)O (stereo partly shown) [Example 105] | 54.6
2 | CCN(CC)C1C[C@H]2CC[C@@H](C1)N2c1cc(-c2cc3c(-c4cc(F)c5c(c4C)CCCO5)c([C@H](OC(C)(C)C)C(=O)O)c(C)nc3n2C)ccn1 (stereo partly shown) [Example 110] | 45
3 | Cc1nc2c(cc(-c3ccnc(NC4C[C@H]5CC[C@@H](C4)N5C)c3)n2C)c(-c2cc(F)c3c(c2C)CCCO3)c1[C@H](OC(C)(C)C)C(=O)O (stereo partly shown) [Example 112] | 1330
4 | Cc1nc2c(cc(C(=O)N3CCCN(C4COC4)CC3)n2C)c(-c2cc(F)c3c(c2C)CCCO3)c1[C@H](OC(C)(C)C)C(=O)O [Example 162] | 3650
5 | Cc1nc2c(cc(C(=O)N3CCC(Oc4ccc(C#N)cc4)CC3)n2C)c(-c2cc(F)c3c(c2C)CCCO3)c1[C@H](OC(C)(C)C)C(=O)O [Example 164] | 42.2
6 | Cc1nc2c(cc(C(=O)N3CCC(NC(=O)c4cncn4C)CC3)n2C)c(-c2cc(F)c3c(c2C)CCCO3)c1[C@H](OC(C)(C)C)C(=O)O [Example 165] | 50000
7 | Cc1nc2c(cc(C(=O)N3CCn4cnnc4C3)n2C)c(-c2cc(F)c3c(c2C)CCCO3)c1[C@H](OC(C)(C)C)C(=O)O [Example 166] | 50000
8 | Cc1nc2c(cc(C(=O)N3CCc4ccc(S(=O)(=O)NC(C)C)cc4C3)n2C)c(-c2cc(F)c3c(c2C)CCCO3)c1[C@H](OC(C)(C)C)C(=O)O [Example 167] | 357
9 | Cc1nc2c(cc(CNC(=O)N3CCCN(C4COC4)CC3)n2C)c(-c2cc(F)c3c(c2C)CCCO3)c1[C@H](OC(C)(C)C)C(=O)O [Example 168] | 12600

Next, values leading:

Row | IC50 [nM] | Structure (SMILES)
10 | 44.5 | Cc1nc2c(cc(-c3ccnc(N4CCC(Oc5ccccc5)C4)c3)n2C)c(-c2cc(F)c3c(c2C)CCCO3)c1[C@H](OC(C)(C)C)C(=O)O (stereo partly shown) [Example 107]
11 | 40 | Cc1nc2c(cc(-c3ccnc(N4CCN5CCCC5C4)c3)n2C)c(-c2cc(F)c3c(c2C)CCCO3)c1[C@H](OC(C)(C)C)C(=O)O (stereo partly shown) [Example 116]
12 | 15 | Cc1nc2c(cc(-c3ccnc(N4CC5CN(C6COC6)CC5C4)c3)n2C)c(-c2cc(F)c3c(c2C)CCCO3)c1[C@H](OC(C)(C)C)C(=O)O (stereo partly shown) [Example 121]
13 | 164 | Cc1nc2c(cc(-c3ccnc(N4CCN5CCC4C5)c3)n2C)c(-c2cc(F)c3c(c2C)CCCO3)c1[C@H](OC(C)(C)C)C(=O)O (stereo partly shown) [Example 123]
14 | 32.5 | Cc1nc2c(cc(-c3ccnc(N4CCCN5CCCC5C4)c3)n2C)c(-c2cc(F)c3c(c2C)CCCO3)c1[C@H](OC(C)(C)C)C(=O)O (stereo partly shown) [Example 124]
15 | 22.5 | Cc1nc2c(cc(-c3ccnc(N4CCCN(C5CCOC5)CC4)c3)n2C)c(-c2cc(F)c3c(c2C)CCCO3)c1[C@H](OC(C)(C)C)C(=O)O (stereo partly shown) [Example 126]
16 | 1.5 | Cc1nc2c(cc(-c3cncc(-c4ccc5c(cnn5C)c4)c3)n2C)c(-c2cc(F)c3c(c2C)CCCO3)c1[C@H](OC(C)(C)C)C(=O)O [Example 138]
17 | 2 | Cc1nc2c(cc(-c3cc(-c4ccc5c(cnn5C)c4)ccn3)n2C)c(-c2cc(F)c3c(c2C)CCCO3)c1[C@H](OC(C)(C)C)C(=O)O [Example 139]
18 | 14.1 | Cc1nc2c(cc(-c3cc(-c4ccc5c(cnn5C)c4)[nH]n3)n2C)c(-c2cc(F)c3c(c2C)CCCO3)c1[C@H](OC(C)(C)C)C(=O)O [Example 140]
19 | 149 | Cc1nc2c(cc(-c3nc(-c4ccc5c(cnn5C)c4)nn3C)n2C)c(-c2cc(F)c3c(c2C)CCCO3)c1[C@H](OC(C)(C)C)C(=O)O [Example 141]
20 | 1.8 | Cc1nc2c(cc(-c3cc(-c4ccc5c(cnn5C)c4)ncn3)n2C)c(-c2cc(F)c3c(c2C)CCCO3)c1[C@H](OC(C)(C)C)C(=O)O [Example 142]
21 | 12.5 | Cc1nc2c(cc(-c3cnc(-c4ccc5c(cnn5C)c4)s3)n2C)c(-c2cc(F)c3c(c2C)CCCO3)c1[C@H](OC(C)(C)C)C(=O)O [Example 143]
22 | 43 | Cc1nc2c(cc(C(=O)Nc3ccc4c(cnn4C)c3)n2C)c(-c2cc(F)c3c(c2C)CCCO3)c1[C@H](OC(C)(C)C)C(=O)O [Example 163]
